{"source": "patent US11129805B2", "about": "“Dual ACE C-domain/NEP inhibitors” (ANGIODESIGN (UK) LIMITED, priority 2016, dated 2021)", "key": {"[1]": {"tested_on": "hypertensive animal (the high-renin mouse model)", "conditions": "in vivo; cited from earlier work"}, "ACE C-domain": {"target": "ACE C-domain (Homo sapiens, UniProt P12821)", "sequence (P12821 643-1222 limits assumed)": "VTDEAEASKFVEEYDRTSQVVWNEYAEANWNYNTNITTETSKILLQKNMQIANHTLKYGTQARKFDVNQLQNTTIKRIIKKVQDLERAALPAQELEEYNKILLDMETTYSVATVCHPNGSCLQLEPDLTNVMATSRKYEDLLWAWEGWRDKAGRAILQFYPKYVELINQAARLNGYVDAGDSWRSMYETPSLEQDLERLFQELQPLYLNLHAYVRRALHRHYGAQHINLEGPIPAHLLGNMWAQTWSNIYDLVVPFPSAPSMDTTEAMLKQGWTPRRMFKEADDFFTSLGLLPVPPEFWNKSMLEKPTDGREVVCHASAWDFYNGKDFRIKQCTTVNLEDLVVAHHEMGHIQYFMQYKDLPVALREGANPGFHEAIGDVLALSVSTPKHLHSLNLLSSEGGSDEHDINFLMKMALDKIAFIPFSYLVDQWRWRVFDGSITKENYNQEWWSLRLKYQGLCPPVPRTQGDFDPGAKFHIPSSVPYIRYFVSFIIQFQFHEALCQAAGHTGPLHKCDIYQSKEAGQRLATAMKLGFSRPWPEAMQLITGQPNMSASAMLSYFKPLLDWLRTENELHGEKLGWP", "conditions": "cited from earlier work"}, "[2]": {"conditions": "cited from earlier work; for angioedema frequency: 5,770 patients with heart failure"}, "[3]": {"tested_on": "10% human plasma supplemented with rhNEP (ACE and NEP activity)", "assay": "Metabolism of a bradykinin 1-9 spike in human plasma (LC-MS/MS)", "format": "biochemical", "conditions": "for initial bradykinin 1-9 spike remaining/recovered following the incubation period: 50 ng/ml BK 1-9 spike, 10% human plasma + rhNEP 200 pg/ml, 37° C.", "experimental": "All samples were spiked with bradykinin 1-9 (BK1-9) at a concentration of 50 ng/ml followed by an incubation period at 37° C. Recombinant human neutral endopeptidase (rhNEP) was added to all samples at a concentration of 200 pg/ml.\nThe concentrations of BK 1-9 are relative to the control that was plasma spiked with BK 1-9 following the incubation period (100% spike control).\nEffects on Bradykinin Peptides. The metabolism of a spike of bradykinin 1-9 (50 ng/ml) in 10% human plasma supplemented with 200 pg/ml rhNEP (R&D) in vitro, followed by LC-MS/MS-based quantification of the bradykinin metabolites bradykinin 1-9, 1-8, 1-7, 1-5, and 2-9 was examined. Briefly, samples where stabilized and spiked with 200 pg/ml of stable-isotope-labelled internal standards for bradykinin 1-9, 1-8, 1-7, 1-5, and 2-9. Following C18-based solid-phase-extraction, samples were subjected to LC-MS/MS analysis using a reversed-phase analytical column (Acquity UPLC® C18, Waters) operating in line with a XEVO TQ-S triple quadrupole mass spectrometer (Waters) in MRM mode."}, "[4]": {"tested_on": "human plasma supplemented with recombinant human NEP (ACE and NEP activity)", "assay": "RAS equilibrium analysis of angiotensin peptides in human plasma ex vivo (LC-MS/MS)", "conditions": "human plasma + rhNEP 200 pg/ml", "experimental": "Recombinant human neutral endopeptidase (rhNEP) was added to all samples at a concentration of 200 pg/ml.\nEquilibrium angiotensin peptide levels were measured in plasma samples after incubating Li-Heparin samples supplemented with recombinant human NEP (rhNEP) (R&D, 200 pg/ml) at controlled pH (7.4) for a period of 30 min at 37° C. in the presence and absence of indicated compounds and enzymes. Following equilibration, samples were stabilized and spiked with stable-isotope-labelled internal standards for each angiotensin metabolite, Ang I (Ang 1-10), Ang II (Ang 1-8), Ang 1-7, Ang 1-5, Ang 2-8, Ang 3-8, Ang 2-10, Ang 2-7, Ang 1-9, and Ang 3-7, at a concentration of 200 pg/ml. Following C18-based solid-phase-extraction, samples were subjected to LC-MS/MS analysis using a reversed-phase analytical column (Acquity UPLC® C18, Waters) operating in line with a XEVO TQ-S triple quadrupole mass spectrometer (Waters) in MRM mode."}, "aminopeptidase P": {"tested_on": "aminopeptidase P", "conditions": "cited from earlier work"}, "[5]": {"conditions": "patients with hypertension, cited from earlier work"}, "[6]": {"conditions": "cited from earlier work"}, "[7]": {"conditions": "573 patients with heart failure; cited from earlier work"}}, "note": "Read-outs that look alike come from different tables or passages of the source."}
{"smiles": "NCCCC[C@H](N[C@@H](CCc1ccccc1)C(=O)O)C(=O)N[C@@H](Cc1c[nH]c2ccccc12)C(=O)O", "note": "[Lis-Trp]", "values": [{"measurement": "Ang II formation", "setting": "[1]", "value": "suppression of Ang Il formation"}, {"measurement": "blood pressure", "setting": "[1]", "value": "reduction in blood pressure equivalent to that achieved with the conventional ACE inhibitor lisinopril"}, {"measurement": "plasma BK levels", "setting": "[1]", "value": "leaving BK levels unchanged"}]}
{"smiles": "O=C(N[C@@H](Cc1ccccc1)P(=O)(O)C1CCCC1C(=O)N[C@@H](Cc1c[nH]c2ccccc12)C(=O)O)OCc1ccccc1", "note": "(some centres unmarked) [RXP A380]", "values": [{"measurement": "C-domain selectivity", "setting": "ACE C-domain", "value": "~3,000 fold"}]}
{"smiles": "CCOC(=O)[C@H](CCc1ccccc1)N[C@@H](C)C(=O)N1CCC[C@H]1C(=O)O", "note": "[enalapril]", "values": [{"measurement": "angioedema frequency", "setting": "[2]", "value": 0.5, "unit": "%"}]}
{"smiles": "NCCCC[C@H](N[C@@H](CCc1ccccc1)C(=O)O)C(=O)N1CCC[C@H]1C(=O)O", "note": "[lisinopril]", "values": [{"measurement": "initial bradykinin 1-9 spike remaining/recovered following the incubation period", "setting": "[3]", "value": "57-70%"}, {"measurement": "plasma BK levels", "setting": "[1]", "value": "substantial increases in plasma BK levels"}]}
{"smiles": "O=C(N[C@H]1CCS[C@H]2CCC[C@@H](C(=O)O)N2C1=O)[C@@H](S)Cc1ccccc1", "note": "[omapatrilat]", "values": [{"measurement": "inhibition of equilibrium Ang 1-8 levels (Ang II)", "setting": "[4]; pH 7.4, 30 min at 37° C.", "value": 93.1, "unit": "%"}, {"measurement": "levels of Ang 1-7", "setting": "[4]; sentence follows the rhACE2 discussion", "value": "undetectable"}, {"measurement": "inhibition of aminopeptidase P", "setting": "aminopeptidase P", "value": "inhibits"}, {"measurement": "reduction in arterial pressure", "setting": "[5]; versus lisinopril", "value": "greater reductions in arterial pressure"}, {"measurement": "excretion of ANP", "setting": "[5]", "value": "increased the excretion of ANP"}, {"measurement": "incidence of angioedema", "setting": "[6]; 25,302 hypertensive subjects", "value": 2.17, "unit": "%"}, {"measurement": "incidence of angioedema", "setting": "[6]; African American patients", "value": 5.53, "unit": "%"}, {"measurement": "blood pressure reduction", "setting": "[6]; comparison with enalapril", "value": "superior to enalapril in reducing blood pressure"}, {"measurement": "angioedema frequency", "setting": "[2]", "value": 0.8, "unit": "%"}, {"measurement": "primary endpoint (all-cause mortality or hospitalization for heart failure)", "setting": "[2]; comparison with enalapril", "value": "failed to show superiority"}, {"measurement": "benefit versus lisinopril", "setting": "[7]", "value": "trend toward greater benefit"}, {"measurement": "initial bradykinin 1-9 spike remaining/recovered following the incubation period", "setting": "[3]", "value": "74-85%"}, {"measurement": "metabolism of bradykinin", "setting": "[3]; versus solvent control plasma", "value": "decreased metabolism of bradykinin"}]}
